Reference: patent US11505575B2, “Cyclic polypeptides for PCSK9 inhibition” (Merck Sharp & Dohme LLC, priority 2018, dated 2022)
*1 amine or outer side, *2 acyl side, *3 side chain or, on linkers, in order; H or OH if unused. Where a SMILES comes first, the peptide text is derived from it. Bridges are numbered along the chain shown (N, C = ends). [ ]: non-standard residue; d: D form. X6 = C[C@@H](O)[C@H](CC(=O)[C@H](Cc1cnc[nH]1)N[*:1])C(=O)[*:2]; αMeNva(5-ylidene) = C[C@@](CCC=[*:3])(N[*:1])C(=O)[*:2]; Ala(4-isoquinolinyl) = N[C@@H](Cc1cncc2ccccc12)C(=O)O; Trp(βS-Me) = C[C@@H](c1c[nH]c2ccccc12)[C@H](N)C(=O)O; X3 = N=C(N)NCc1ccc(C[C@H](N[*:1])C(=O)[*:2])cc1; Trp(7-aza) = N[C@@H](Cc1c[nH]c2ncccc12)C(=O)O; Phe(4-CH2NH2) = NCc1ccc(C[C@H](N)C(=O)O)cc1; X1 = C[C@@](CCCCC=[*:3])(N[*:1])C(=O)[*:2]; X2 = O=C(CCSCc1cccc(CSCCN[*:1])c1)[*:2]; 1Nal = N[C@@H](Cc1cccc2ccccc12)C(=O)O; mXylylene = c1cc(C[*:1])cc(C[*:2])c1; Aad = N[C@@H](CCCC(=O)O)C(=O)O; aThr = C[C@H](O)[C@H](N)C(=O)O; Chg = N[C@H](C(=O)O)C1CCCCC1; Tle = CC(C)(C)[C@H](N)C(=O)O; αMeK = C[C@](N)(CCCCN)C(=O)O; αMeV = CC(C)[C@](C)(N)C(=O)O; Nva = CCC[C@H](N)C(=O)O; Aib = CC(C)(N)C(=O)O; Mpa = O=C(O)CCS

Assays:
[1] = target: human PCSK9 / human LDLR EGFa domain interaction (Homo sapiens, UniProt Q8NBP7); experiment: TR-FRET assay of inhibition of the PCSK9-LDLR protein-protein interaction; assay type: binding; details: 20 nM biotinylated human PCSK9 + 20 nM his-tagged human LDLR EGFa domain, 2 hours room temperature
In short: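 Biotinylated human PCSK9 (20 nM) and His-tagged human LDLR EGFa domain (20 nM) incubated with Ulight-streptavidin and Eu-anti-His (5 nM each), 2 h at room temperature, in HEPES pH buffer with 5 mM CaCl2. TR-FRET read-out; IC50 from 4-parameter fit of dose-response.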

[2] = target: T1, PCSK9 (Homo sapiens, UniProt Q8NBP7); experiment: PCSK9 Alexa FRET Standard assay (displacement of AlexaFluor647-tagged cyclic peptide Reagent A); assay type: binding; details: 0.5 nM PCSK9, 20 nM AF cyclic peptide Reagent A
T1 construct: biotin (biotinylated)
Experimental: A solution containing 1 nM biotinylated PCSK9+2.5 nM Lance Streptavidin Europium (Strep-Eu) was made in 50 mM HEPES pH 7.4, 0.15 M NaCl, 5 mM CaCl2, 0.01% BSA, and 0.01% Surfactant P20. A separate solution containing 40 nM of the AlexaFluor tagged cyclic peptide was made in the same buffer system. An Echo was used to transfer 0.750 ul of compound to an assay plate followed by the addition of 15 ul of PCSK9+Stept-Eu and 15 ul of AF peptide. The final assay volume was 30.750 ul containing 0.5 nM PCSK9, 1.25 nM Strep-Eu, and 20 nM AF cyclic peptide. The reaction was incubated at room temperature for at least two hours prior to fluorescence measurements using an Envision Multilabel Reader. IC50 values were determined by fitting data to a sigmoidal dose-response curve using nonlinear regression. Ki was then calculated from the IC50 and the KD of AF cyclic peptide. Counts (B-counts) of the europium-labeled PCSK9 were followed to observe if compounds were […]. A fall off of the B-counts likely indicated a false positive of inhibition. Data from this procedure was reported as “A=‘numerical value’ (nanomolar)”

human PCSK9 / human LDLR EGFa domain interaction, sequence (Q8NBP7 153-692): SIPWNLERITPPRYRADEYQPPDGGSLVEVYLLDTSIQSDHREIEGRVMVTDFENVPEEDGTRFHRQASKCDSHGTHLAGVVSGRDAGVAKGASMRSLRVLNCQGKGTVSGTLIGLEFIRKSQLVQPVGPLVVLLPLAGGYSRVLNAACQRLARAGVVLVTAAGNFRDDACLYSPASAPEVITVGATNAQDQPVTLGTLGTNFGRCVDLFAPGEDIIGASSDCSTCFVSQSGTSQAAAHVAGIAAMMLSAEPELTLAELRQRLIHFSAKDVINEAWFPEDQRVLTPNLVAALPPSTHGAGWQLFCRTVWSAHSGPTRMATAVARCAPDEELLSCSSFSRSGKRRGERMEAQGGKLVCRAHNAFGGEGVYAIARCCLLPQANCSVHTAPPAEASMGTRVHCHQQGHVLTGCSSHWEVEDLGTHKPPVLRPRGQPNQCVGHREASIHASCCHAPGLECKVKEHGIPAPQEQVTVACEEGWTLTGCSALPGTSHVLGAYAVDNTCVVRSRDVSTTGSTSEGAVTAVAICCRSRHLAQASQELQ
human PCSK9 / human LDLR EGFa domain interaction, sequence (Q8NBP7 31-152 partner limits assumed): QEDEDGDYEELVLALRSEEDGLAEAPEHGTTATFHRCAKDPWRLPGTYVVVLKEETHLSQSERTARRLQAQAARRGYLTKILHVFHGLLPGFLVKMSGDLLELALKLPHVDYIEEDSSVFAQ
T1 sequence (Q8NBP7 153-692): as the sequence (Q8NBP7 153-692) above

Row | Compound | IC50 [1] [nM] | IC50 [2] [nM]
1 | CCC[C@@H]1NC(=O)[C@H](Cc2cccc3ccccc23)NC(=O)[C@H]([C@@H](C)O)NC(=O)[C@@H]2CCCN2C(=O)[C@H](Cc2ccccc2)NC(=O)[C@H](C(C)C)NC(=O)CCSCc2cccc(c2)CSCCNC(=O)[C@H](C)NC(=O)[C@](C)(C(C)C)NC(=O)[C@H](Cc2ccccc2)NC(=O)[C@H](C)NC1=O [Compound 022] (cyclo([1Nal][Nva]AF[αMeV]A[X2]VFPT)) | 100 to 1000 | 1 to 100
2 | CC(C)[C@]1(C)NC(=O)[C@H](Cc2ccc(O)cc2)NC(=O)[C@H](CCC(=O)O)NC(=O)C(C)(C)NC(=O)[C@H](Cc2c[nH]c3ncccc23)NC(=O)[C@H]([C@@H](C)O)NC(=O)[C@@H]2CCCN2C(=O)[C@H](Cc2ccc(O)cc2)NC(=O)[C@H](C(C)(C)C)NC(=O)CCSCc2cccc(c2)CSC[C@@H](C(N)=O)NC(=O)[C@H]([C@H](C)O)NC1=O [Compound 020] ([Mpa][Tle]YPT[Trp(7-aza)][Aib]EY[αMeV][aThr]C-NH2; linker 1-12 via mXylylene) | 21000 to 50000 | 1000 to 12100
3 | CC1O[C@@H](C)[C@@H]2NC(=O)[C@@]1(C)NC(=O)[C@H](Cc1ccc(O)cc1)NC(=O)[C@H](C)NC(=O)C(C)(C)NC(=O)[C@H](Cc1c[nH]c3ncccc13)NC(=O)[C@H]([C@@H](C)O)NC(=O)[C@@H]1CCCN1C(=O)[C@H](Cc1ccc(O)cc1)NC(=O)[C@H](C(C)(C)C)NC(=O)CCSCc1cccc(c1)CSC[C@@H](C(N)=O)NC2=O (stereo partly drawn) [Compound 017] | 100 to 1000 | 1 to 100
4 | CC(C)[C@@H]1NC(=O)CCSCc2cccc(c2)CSCCNC(=O)[C@H](C)NC(=O)[C@](C)(C(C)C)NC(=O)[C@H](Cc2ccccc2)NC(=O)[C@H](C)NC(=O)C(C)(C)NC(=O)[C@H](Cc2cccc3ccccc23)NC(=O)[C@H]([C@@H](C)O)NC(=O)[C@@H]2CCCN2C(=O)[C@H](Cc2ccccc2)NC1=O [Compound 021] (cyclo([1Nal][Aib]AF[αMeV]A[X2]VFPT)) | 100 to 1000 | 1 to 100
5 | CC(C)[C@]1(C)NC(=O)[C@H](Cc2ccc(O)cc2)NC(=O)[C@H](C)NC(=O)[C@](C)(CCCCN)NC(=O)[C@H](Cc2c[nH]c3ncccc23)NC(=O)[C@H]([C@@H](C)O)NC(=O)[C@@H]2CCCN2C(=O)[C@H](Cc2ccc(O)cc2)NC(=O)[C@H](C(C)(C)C)NC(=O)CCSCc2cccc(c2)CSC[C@@H](C(N)=O)NC(=O)[C@H]([C@@H](C)O)NC1=O [Compound 023] ([Mpa][Tle]YPT[Trp(7-aza)][αMeK]AY[αMeV]TC-NH2; linker 1-12 via mXylylene) | 1 to 100 | 1 to 100
6 | CC(C)[C@]1(C)NC(=O)[C@H](Cc2ccc(O)cc2)NC(=O)[C@H](C)NC(=O)C(C)(C)NC(=O)[C@H](Cc2c[nH]c3ncccc23)NC(=O)[C@H]([C@@H](C)O)NC(=O)[C@@H]2CCCN2C(=O)[C@H](Cc2ccc(O)cc2)NC(=O)[C@H](C(C)(C)C)NC(=O)CCSCc2cccc(c2)CSC[C@@H](C(N)=O)NC(=O)[C@H](CCCCN)NC1=O [Compound 019] ([Mpa][Tle]YPT[Trp(7-aza)][Aib]AY[αMeV]KC-NH2; linker 1-12 via mXylylene) | 21000 to 50000 | 1000 to 12100
7 | CCC[C@@H]1NC(=O)[C@H](Cc2cncc3ccccc23)NC(=O)[C@H]([C@@H](C)O)CC(=O)[C@H](Cc2cnc[nH]2)NC(=O)[C@H](Cc2ccc(O)cc2)NC(=O)[C@H](C(C)(C)C)NC(=O)CCSCc2cccc(c2)CSC[C@@H](C(N)=O)NC(=O)[C@H]([C@@H](C)O)NC(=O)[C@H](CCC)NC(=O)[C@H](Cc2ccc(O)cc2)NC(=O)[C@H](CCC(=O)O)NC1=O [Compound 052] ([Mpa][Tle]Y[X6][Ala(4-isoquinolinyl)][Nva]EY[Nva]TC-NH2; linker 1-11 via mXylylene) | 100 to 1000 | 100 to 1000
8 | CC(C)[C@]1(C)NC(=O)[C@H](Cc2ccc(O)cc2)NC(=O)[C@H](C)NC(=O)C(C)(C)NC(=O)[C@H](Cc2c[nH]c3ncccc23)NC(=O)[C@H]([C@@H](C)O)NC(=O)[C@@H]2CCCN2C(=O)[C@H](Cc2ccc(O)cc2)NC(=O)[C@H](C(C)(C)C)NC(=O)CCSCc2cccc(c2)CSC[C@@H](C(N)=O)NC(=O)[C@H](CO)NC1=O [Compound 018] ([Mpa][Tle]YPT[Trp(7-aza)][Aib]AY[αMeV]SC-NH2; linker 1-12 via mXylylene) | 1 to 100 | 1 to 100
9 | CCC[C@H](NC(=O)[C@H](CCCCN)NC(C)=O)C(=O)N[C@H]1CSCc2cccc(c2)CSC[C@@H](C(N)=O)NC(=O)[C@H]([C@@H](C)O)NC(=O)[C@H](C2CCCCC2)NC(=O)[C@H](Cc2c[nH]c3ncccc23)NC(=O)[C@H](Cc2cnc[nH]2)NC(=O)[C@H](CCC(=O)O)NC(=O)[C@H](Cc2c[nH]c3ncccc23)NC(=O)[C@H]([C@@H](C)O)NC(=O)[C@@H]2CCCN2C(=O)[C@H](Cc2ccc(O)cc2)NC(=O)[C@H](C(C)(C)C)NC1=O [Compound 002] (Ac-K[Nva]C[Tle]YPT[Trp(7-aza)]EH[Trp(7-aza)][Chg]TC-NH2; linker 3-14 via mXylylene) | 1 to 100 | 1 to 100

The next lines start with the values.

Row | IC50 [1] [nM] | IC50 [2] [nM] | Compound
10 | 100 to 1000 | 1 to 100 | CCC[C@@H]1NC(=O)[C@H](Cc2c[nH]c3ncccc23)NC(=O)[C@H]([C@@H](C)O)NC(=O)[C@H](Cc2cnc[nH]2)NC(=O)[C@H](Cc2ccc(O)cc2)NC(=O)[C@H](C(C)(C)C)NC(=O)CCSCc2cccc(c2)CSC[C@@H](C(N)=O)NC(=O)[C@H]([C@@H](C)O)NC(=O)[C@H](Cc2ccc(O)cc2)NC(=O)[C@H](Cc2ccc(O)cc2)NC(=O)[C@H](CCC(=O)O)NC1=O [Compound 071] ([Mpa][Tle]YHT[Trp(7-aza)][Nva]EYYTC-NH2; linker 1-12 via mXylylene)
11 | 1 to 100 | 1 to 100 | CCC[C@@H]1NC(=O)[C@H](Cc2ccc(O)cc2)NC(=O)[C@@H]2CCC(=O)NCCCC[C@H](NC(=O)[C@H](Cc3ccc(O)cc3)NC(=O)[C@H](C(C)(C)C)NC(=O)CCSCc3cccc(c3)CSC[C@@H](C(N)=O)NC(=O)[C@H]([C@@H](C)O)NC1=O)C(=O)N[C@@H]([C@@H](C)O)C(=O)N[C@@H](Cc1c[nH]c3ncccc13)C(=O)NC(C)(C)C(=O)N2 [Compound 110] ([Mpa][Tle]YKT[Trp(7-aza)][Aib]EY[Nva]TC-NH2; linker 1-12 via mXylylene; lactam 4-8)
12 | 21000 to 50000 | 100 to 1000 | CCC[C@@H]1NC(=O)[C@H](Cc2c[nH]c3ncccc23)NC(=O)[C@H]([C@@H](C)O)NC(=O)[C@H](Cc2cnc[nH]2)NC(=O)[C@H](Cc2ccc(O)cc2)NC(=O)[C@H](C(C)(C)C)NC(=O)[C@@H](NC(=O)[C@H](Cc2ccc(CNC(=N)N)cc2)NC(C)=O)CSCc2cccc(c2)CSC[C@@H](C(N)=O)NC(=O)[C@H]([C@@H](C)O)NC(=O)[C@H](CCC)NC(=O)[C@H](Cc2ccc(O)cc2)NC(=O)[C@H](CCC(=O)O)NC1=O [Compound 098] (Ac-[X3]C[Tle]YHT[Trp(7-aza)][Nva]EY[Nva]TC-NH2; linker 2-13 via mXylylene)
13 | 1000 to 12100 | 100 to 1000 | CCC[C@@H]1NC(=O)[C@H](Cc2ccc(O)cc2)NC(=O)[C@H](C)NC(=O)[C@]2(C)CC/C=C\CCCC[C@](C)(NC1=O)C(=O)N[C@H](C(N)=O)CCCCNC(=O)CCC[C@H](NC(C)=O)C(=O)N[C@@H](C(C)(C)C)C(=O)N[C@@H](Cc1ccc(O)cc1)C(=O)N1CCC[C@H]1C(=O)N[C@@H]([C@@H](C)O)C(=O)N[C@@H](Cc1c[nH]c3ncccc13)C(=O)N2 [Compound 104] (Ac-[Aad][Tle]YPT[Trp(7-aza)][αMeNva(5-ylidene)]AY[Nva][X1]K-NH2; lactam 1-12; staple (Z) 7-11)
14 | 100 to 1000 | 100 to 1000 | CCC[C@@H]1NC(=O)[C@H](Cc2c[nH]c3ncccc23)NC(=O)[C@H]([C@@H](C)O)NC(=O)[C@H](Cc2cnc[nH]2)NC(=O)[C@H](Cc2ccc(O)cc2)NC(=O)[C@H](Cc2ccc(CN)cc2)NC(=O)CCSCc2cccc(c2)CSC[C@@H](C(N)=O)NC(=O)[C@H]([C@@H](C)O)NC(=O)[C@H](CCC)NC(=O)[C@H](Cc2ccc(O)cc2)NC(=O)[C@H](CCC(=O)O)NC1=O [Compound 086] ([Mpa][Phe(4-CH2NH2)]YHT[Trp(7-aza)][Nva]EY[Nva]TC-NH2; linker 1-12 via mXylylene)
15 | 1 to 100 | 1 to 100 | CCC[C@@H]1NC(=O)[C@H](Cc2c[nH]c3ncccc23)NC(=O)[C@H]([C@@H](C)O)NC(=O)[C@H](Cc2cnc[nH]2)NC(=O)[C@H](Cc2ccc(O)cc2)NC(=O)[C@H]([C@@H](C)c2c[nH]c3ccccc23)NC(=O)CCSCc2cccc(c2)CSC[C@@H](C(N)=O)NC(=O)[C@H]([C@@H](C)O)NC(=O)[C@H](CCC)NC(=O)[C@H](Cc2ccc(O)cc2)NC(=O)[C@H](CCC(=O)O)NC1=O [Compound 097] ([Mpa][Trp(βS-Me)]YHT[Trp(7-aza)][Nva]EY[Nva]TC-NH2; linker 1-12 via mXylylene)
